Results reported in US20100267561A1, “HERBICIDAL PYRIDAZINONE DERIVATIVES” (priority 2007, published 2010).

Legend:
Format in all cases: in vivo
corn (Zea mays) = experiment: Test A pre-/postemergence plant response
Method in brief: (§1)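 Ratings run 0–100 (100 = complete control), assigned visually against untreated controls roughly 10 days after treatment in a greenhouse. Compounds, formulated in non-phytotoxic solvent containing surfactant, were applied as a soil-directed preemergence spray and concurrently postemergence to one- to two-leaf plants 2–10 cm tall.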

[1] = tested on: giant foxtail (Setaria faberi); experiment: Test A pre-/postemergence plant response
Method in brief: as §1

[2] = tested on: yellow nutsedge (Cyperus esculentus); experiment: Test B pre-/postemergence plant response
Method in brief: (§2)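 Visual scoring from 0 (no effect) to 100 (complete control) against untreated controls was done 13 to 15 days after greenhouse treatment. Chemicals were formulated in a surfactant-containing non-phytotoxic solvent and applied to soil preemergence or to 1- to 4-leaf (2-18 cm) plants postemergence.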

[3] = tested on: wheat (Triticum aestivum); experiment: Test B pre-/postemergence plant response
Method in brief: as §2

[4] = tested on: Italian ryegrass (Lolium multiflorum); experiment: Test B pre-/postemergence plant response
Method in brief: as §2

[5] = tested on: johnsongrass (Sorghum halepense); experiment: Test B pre-/postemergence plant response
Method in brief: as §2

[6] = tested on: bermudagrass (Cynodon dactylon); experiment: Test B pre-/postemergence plant response
Method in brief: as §2

kochia (Kochia scoparia) = experiment: Test B pre-/postemergence plant response; settings: for Kochia plant response rating: postemergence, 0-100 scale; for Plant response rating, Kochia: Postemergence
Method in brief: as §2

soybean (Glycine max) = experiment: Test B pre-/postemergence plant response
Method in brief: as §2

[7] = tested on: eastern black (E.B.) nightshade (Solanum ptycanthum); experiment: Test B pre-/postemergence plant response; settings: Preemergence; for Nightshade, E. B. plant response rating: scale 0 to 100
Method in brief: as §2

[8] = tested on: velvetleaf (Abutilon theophrasti); experiment: Test B pre-/postemergence plant response
Method in brief: as §2

[9] = tested on: common (oilseed) sunflower (Helianthus annuus); experiment: Test B pre-/postemergence plant response; settings: Preemergence; for Sunflower plant response rating: scale 0 to 100
Method in brief: as §2

[10] = Postemergence, 31 g ai/ha, 0 to 100 scale, 0 no effect, 100 complete control
[11] = Postemergence, 125 g ai/ha, 0 to 100 scale, 0 no effect, 100 complete control
[12] = Preemergence, 31 g ai/ha, 0 to 100 scale, 0 is no effect, 100 is complete control
[13] = Preemergence, 125 g ai/ha, 0 to 100 scale (0 no effect, 100 complete control)
[14] = 8 g ai/ha, postemergence, 0-100 scale
[15] = 16 g ai/ha, postemergence, 0-100 scale
[16] = Postemergence, 31 g ai/ha, scale 0 to 100
[17] = Postemergence, 62 g ai/ha, scale 0 to 100, 0 no effect, 100 complete control
[18] = Preemergence, 31 g ai/ha, scale 0 to 100 (0 no effect, 100 complete control)
[19] = Preemergence, 62 g ai/ha, 0 to 100 scale, 0 no effect, 100 complete control
[20] = Preemergence, 8 g ai/ha, scale 0 to 100
[21] = Preemergence, 16 g ai/ha, scale 0 to 100
[22] = 31 g ai/ha, scale 0 to 100 (0 no effect, 100 complete control)
[23] = 62 g ai/ha, 0 to 100 scale, 0 no effect, 100 complete control

CCCc1cc(-c2ccc(Cl)cc2)nn1-c1c(O)cnn(C)c1=O [Compound 76]
Plant response rating, Corn (corn (Zea mays); [10]): 20
Plant response rating, Corn (corn (Zea mays); [11]): 100
Plant response rating, Corn (corn (Zea mays); [12]): 0
Plant response rating, Corn (corn (Zea mays); [13]): 50
Plant response rating, Foxtail, Giant [1, 10]: 70
Plant response rating, Foxtail, Giant [1, 11]: 90
Plant response rating, Foxtail, Giant [1, 12]: 70
Plant response rating, Foxtail, Giant [1, 13]: 100
Nutsedge, Yellow plant response rating [2, 14]: 0
Nutsedge, Yellow plant response rating [2, 15]: 0
Plant response rating, Nutsedge, Yellow [2, 16]: 0
Plant response rating, Nutsedge, Yellow [2, 17]: 0
Plant response rating, Nutsedge, Yellow [2, 18]: 100
Plant response rating, Nutsedge, Yellow [2, 19]: 100
Nutsedge, Yellow plant response rating [2, 20]: 100
Nutsedge, Yellow plant response rating [2, 21]: 100
Wheat plant response rating [3, 14]: 10
Wheat plant response rating [3, 15]: 30
Plant response rating, Wheat [3, 16]: 30
Plant response rating, Wheat [3, 17]: 35
Plant response rating, Wheat [3, 18]: 0
Plant response rating, Wheat [3, 19]: 0
Wheat plant response rating [3, 21]: 0
Ryegrass, Italian plant response rating [4, 14]: 65
Ryegrass, Italian plant response rating [4, 15]: 98
Plant response rating, Ryegrass, Italian [4, 16]: 100
Plant response rating, Ryegrass, Italian [4, 17]: 100
Plant response rating, Ryegrass, Italian [4, 18]: 95
Plant response rating, Ryegrass, Italian [4, 19]: 95
Ryegrass, Italian plant response rating [4, 20]: 75
Ryegrass, Italian plant response rating [4, 21]: 75
Johnsongrass plant response rating [5, 14]: 65
Johnsongrass plant response rating [5, 15]: 75
Plant response rating, Johnsongrass [5, 16]: 95
Plant response rating, Johnsongrass [5, 17]: 98
Plant response rating, Johnsongrass [5, 18]: 70
Plant response rating, Johnsongrass [5, 19]: 85
Johnsongrass plant response rating [5, 20]: 0
Johnsongrass plant response rating [5, 21]: 0
Bermudagrass plant response rating [6, 14]: 70
Plant response rating, Bermudagrass ([6]; Postemergence, 16 g ai/ha, scale 0 to 100): 80
Plant response rating, Bermudagrass [6, 16]: 85
Plant response rating, Bermudagrass [6, 17]: 90
Bermudagrass plant response rating ([6]; Preemergence, 8 g ai/ha, scale 0 to 100 (0 no effect, 100 complete control)): 0
Bermudagrass plant response rating ([6]; Preemergence, 16 g ai/ha, scale 0 to 100 (0 no effect, 100 complete control)): 20
Plant response rating, Bermudagrass [6, 18]: 100
Plant response rating, Bermudagrass [6, 19]: 100
Kochia plant response rating (kochia (Kochia scoparia); 8 g ai/ha): 0
Kochia plant response rating (kochia (Kochia scoparia); 16 g ai/ha): 0
Plant response rating, Kochia (kochia (Kochia scoparia); 31 g ai/ha, scale 0 to 100): 0
Plant response rating, Kochia (kochia (Kochia scoparia); 62 g ai/ha, scale 0 to 100, 0 no effect, 100 complete control): 0
Soybean plant response rating (soybean (Glycine max); [14]): 0
Soybean plant response rating (soybean (Glycine max); [15]): 0
Plant response rating, Soybean (soybean (Glycine max); [16]): 0
Plant response rating, Soybean (soybean (Glycine max); [17]): 0
Plant response rating, Soybean (soybean (Glycine max); [18]): 0
Plant response rating, Soybean (soybean (Glycine max); [19]): 0
Soybean plant response rating (soybean (Glycine max); [20]): 0
Soybean plant response rating (soybean (Glycine max); [21]): 0
Plant response rating, Nightshade, E. B. [7, 22]: 0
Plant response rating, Nightshade, E. B. [7, 23]: 0
Nightshade, E. B. plant response rating ([7]; 8 g ai/ha): 0
Nightshade, E. B. plant response rating ([7]; 16 g ai/ha): 0
Velvetleaf plant response rating [8, 14]: 0
Velvetleaf plant response rating [8, 15]: 0
Plant response rating, Velvetleaf [8, 16]: 0
Plant response rating, Velvetleaf [8, 17]: 0
Plant response rating, Velvetleaf [8, 18]: 0
Plant response rating, Velvetleaf [8, 19]: 0
Velvetleaf plant response rating [8, 20]: 0
Velvetleaf plant response rating [8, 21]: 0
Plant response rating, Sunflower [9, 22]: 0
Plant response rating, Sunflower [9, 23]: 0
Sunflower plant response rating ([9]; 8 g ai/ha): 0
Sunflower plant response rating ([9]; 16 g ai/ha): 0
